What is called IC50 is the midpoint of a concentration-inhibition curve.

For 25 compounds, Kd, 2-AG accumulation, % of vehicle control and IC50 results are on record in patent US8362000B2, “Azetidinyl diamides as monoacylglycerol lipase inhibitors” (Janssen Pharmaceutica NV, priority 2009, dated 2013).

The target of one assay is T1, mutant MGL (Homo sapiens, UniProt Q99685, L169S/L176S).
T1 sequence (Q99685 1-303 L169S/L176S): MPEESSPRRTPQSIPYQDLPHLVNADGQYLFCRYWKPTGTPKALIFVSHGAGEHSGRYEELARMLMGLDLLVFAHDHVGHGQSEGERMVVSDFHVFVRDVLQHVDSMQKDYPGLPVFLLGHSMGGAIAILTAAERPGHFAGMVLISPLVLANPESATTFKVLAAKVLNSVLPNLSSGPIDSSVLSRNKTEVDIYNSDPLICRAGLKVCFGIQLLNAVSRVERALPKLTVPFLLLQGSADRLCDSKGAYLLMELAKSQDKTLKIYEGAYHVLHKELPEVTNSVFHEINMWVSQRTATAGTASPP
Briefly: MGL ThermoFluor assay - mutant. In kind it is binding. A general note: In DSF a fluorescence change marks the thermal transition of the protein.

The target in a further assay is T2, MGL (Rattus norvegicus, UniProt Q8R431).
T2 construct: one g rat brain was homogenized using a Polytron homogenizer; from tissue; host or cells: rat brain homogenate
T2 sequence (Q8R431 1-303): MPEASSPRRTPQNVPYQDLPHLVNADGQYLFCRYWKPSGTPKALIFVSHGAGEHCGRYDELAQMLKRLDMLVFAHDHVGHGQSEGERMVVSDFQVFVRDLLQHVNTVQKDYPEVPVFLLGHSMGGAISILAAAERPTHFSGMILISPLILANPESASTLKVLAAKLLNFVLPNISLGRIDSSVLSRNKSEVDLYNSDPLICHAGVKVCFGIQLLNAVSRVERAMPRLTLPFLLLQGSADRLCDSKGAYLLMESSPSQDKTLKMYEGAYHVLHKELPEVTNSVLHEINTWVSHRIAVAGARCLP
Kind of assay: 2-AG accumulation assay in rat brain homogenate. In kind it is biochemical. Conditions: rat brain homogenate, 2-AG accumulation as percent of vehicle; for 2-AG accumulation, % of vehicle control at 1 µM: compound 1 μM, read-out: Rat Brain 2AG % VehCntrl (%) @ 1 μM; for 2-AG accumulation, % of vehicle control at 10 µM: compound 10 μM, read-out: Rat Brain 2AG % VehCntrl (%) @ 10 μM.

For assay [1], the target named is T3, purified wild type MGL (wt-MGLL 6H-11-313) (Homo sapiens, UniProt Q99685).
T3 sequence (Q99685 1-303): T1 sequence (Q99685 1-303 L169S/L176S) with S169L, S176L

[2] abbreviates: ThermoFluor concentration-response, read-out: MGL mutant ThermoFluor Kd.
[3] abbreviates: ThermoFluor, compound concentration measured by qNMR, read-out: MGL mutant ThermoFluor qKd (using qNMR conc.).
Setting [4] is: ThermoFluor thermal stability binding assay, read-out: MGL mutant ThermoFluor Kd.
The mark [5] stands for this setting: ThermoFluor, compound concentration measured by qNMR, read-out: MGL mutant ThermoFluor qKd (μM) (using qNMR conc.).

Where a chain is given by its changes, count along the chain named. Read-outs that look alike come from different tables or passages of the source.

On to `COc1ccc(-c2cccc(C(=O)N3CC(N4CCN(C(=O)c5nccs5)CC4)C3)c2)cc1` [Cpd 1091], for which the Kd at mutant MGL (setting [2]) worked out at 1.64 µM. Besides, on MGL, the 2-AG accumulation, % of vehicle control at 1 µM was 450%. In assay [1], this compound registered a half-maximal inhibitory concentration (IC50) of 0.011 µM.

As for `O=C(c1ccc2cc(-c3ccccc3)[nH]c2c1)N1CC(N2CCN(C(=O)c3nccs3)CC2)C1` [Cpd 1333], the Kd at mutant MGL (setting [3]) worked out at 0.04 µM. For the same compound, at MGL, the 2-AG accumulation, % of vehicle control at 1 µM stood at 824%. Besides, the IC50 in assay [1] was < 0.005 µM.

Consider `O=C(c1ccccc1)N1CCN(C2CN(C(=O)c3ccc(Sc4cccc(C(F)(F)F)c4)cc3)C2)CC1` [Cpd 430], for which the Kd on mutant MGL (setting [2]) was determined as 0.0667 µM. Moreover, on MGL, the 2-AG accumulation, % of vehicle control at 1 µM is 114%. This compound also displayed an IC50 in assay [1] of 0.0236 µM.

With `O=C(c1ccc(-c2ccccc2)c(F)c1)N1CC(N2CCN(C(=O)c3nccs3)CC2)C1` [Cpd 166, 1-{1-[(2-Fluorobiphenyl-4-yl)carbonyl]azetidin-3-yl}-4-(1,3-thiazol-2-ylcarbonyl)piperazine], on mutant MGL (setting [2]), the Kd is 0.005 µM. In addition, the 2-AG accumulation, % of vehicle control at 1 µM on MGL worked out at 509%. Also, in assay [1], the concentration for half-maximal inhibition (IC50) was < 0.005 µM.

In the case of `Cc1cn(-c2ccccc2)c2ccc(C(=O)N3CC(N4CCN(C(=O)c5cscn5)CC4)C3)cc12` [Cpd 1152], the Kd at mutant MGL (setting [4]) was 0.007 µM. Further, the 2-AG accumulation, % of vehicle control at 1 µM at MGL was determined as 394%. In assay [1], this compound came in with an IC50 of 0.038 µM.

As for `O=C(c1cc(F)c2c(ccn2-c2ccc(F)cc2)c1)N1CC(N2CCN(C(=O)c3nccs3)CC2)C1` [Cpd 1350, 7-Fluoro-1-(4-fluorophenyl)-5-({3-[4-(1,3-thiazol-2-ylcarbonyl)piperazin-1-yl]azetidin-1-yl}carbonyl)-1H-indole], the Kd at mutant MGL (compound concentration measured by qNMR, read-out: MGL mutant ThermoFluor qKd (using qNMR conc.)) was 0.001 µM. Also, on MGL, the 2-AG accumulation, % of vehicle control at 1 µM came to 873%. The IC50 in assay [1] is < 0.005 µM.

On to `Cc1c(Cc2ccc(C(F)(F)F)cc2)cccc1C(=O)N1CC(N2CCN(C(=O)c3cscn3)CC2)C1` [Cpd 1009], for which the Kd on mutant MGL (setting [2]) amounted to 0.589 µM. In addition, at MGL, the 2-AG accumulation, % of vehicle control at 1 µM was 706%. The IC50 in assay [1] turned out to be 0.065 µM.

As to `O=C(c1ccccc1)N1CCN(C2CN(C(=O)c3cc4cccc(C(F)(F)F)c4s3)C2)CC1` [Cpd 329, 1-(Phenylcarbonyl)-4-(1-{[7-(trifluoromethyl)-1-benzothiophen-2-yl]carbonyl}azetidin-3-yl)piperazine], on mutant MGL (setting [4]), the Kd is 0.0626 µM. The 2-AG accumulation, % of vehicle control at 10 µM at MGL was determined as 520%. In assay [1], this compound yielded an IC50 of 1.22 µM.

In the case of `O=C(c1ccc(N2CCCC2)cc1)N1CC(N2CCN(C(=O)c3nccs3)CC2)C1` [Cpd 669], the Kd at mutant MGL (setting [2]) was 0.005 µM. The 2-AG accumulation, % of vehicle control at 1 µM at MGL turned out to be 583%. In assay [1], this compound had an IC50 of 0.015 µM.

As for `O=C(c1ccccc1)N1CCN(C2CN(C(=O)c3ccc(Oc4cccc(C(F)(F)F)c4)cc3)C2)CC1` [Cpd 419, 1-(Phenylcarbonyl)-4-[1-({4-[3-(trifluoromethyl)phenoxy]phenyl}carbonyl)azetidin-3-yl]piperazine], the Kd at mutant MGL (setting [2]) turned out to be 0.123 µM. Further, the 2-AG accumulation, % of vehicle control at 1 µM at MGL turned out to be 109%. In assay [1], this compound gave an IC50 of 0.17 µM.

Turning to `Cc1ccc(-n2ccc3cc(C(=O)N4CC(N5CCN(C(=O)c6ccc[nH]6)CC5)C4)ccc32)cn1` [Cpd 1181, 1-(6-Methylpyridin-3-yl)-5-({3-[4-(1H-pyrrol-2-ylcarbonyl)piperazin-1-yl]azetidin-1-yl}carbonyl)-1H-indole], the Kd on mutant MGL (setting [3]) is 0.278 µM. Also, at MGL, the 2-AG accumulation, % of vehicle control at 1 µM came out at 288%. Also, the IC50 in assay [1] worked out at 0.077 µM.

As to `O=C(c1ccc2c(-c3ccc(C(F)(F)F)cc3)c[nH]c2c1)N1CC(N2CCN(C(=O)c3cscn3)CC2)C1` [Cpd 1344], the Kd on mutant MGL (setting [2]) was found to be 0.01 µM. In addition, the 2-AG accumulation, % of vehicle control at 1 µM at MGL came out at 543%. Also, the IC50 in assay [1] is < 0.005 µM.

As to `O=C(c1ccc(C(F)c2ccc(C(F)(F)F)cc2)cc1)N1CC(N2CCN(C(=O)c3nccs3)CC2)C1` (stereo not shown) [Cpd 982, 1-{1-[(4-{Fluoro[4-(trifluoromethyl)phenyl]methyl}phenyl)carbonyl]azetidin-3-yl}-4-(1,3-thiazol-2-ylcarbonyl)piperazine], the Kd at mutant MGL (setting [2]) stood at 0.01 µM. For the same compound, the 2-AG accumulation, % of vehicle control at 1 µM on MGL turned out to be 762%. The IC50 in assay [1] was < 0.005 µM.

Regarding `O=C(c1ccc(Oc2ccc(Br)cn2)cc1)N1CC(N2CCN(C(=O)c3nccs3)CC2)C1` [Cpd 877], at mutant MGL (setting [2]), the Kd is 0.1 µM. In addition, the 2-AG accumulation, % of vehicle control at 1 µM at MGL was determined as 475%. In assay [1], the IC50 is < 0.005 µM.

As to `O=C(c1ccc2c(c1)CCN(C(=O)c1cccs1)C2)N1CC(N2CCN(C(=O)c3nccs3)CC2)C1` [Cpd 665], the Kd at mutant MGL (setting [4]) worked out at 0.058 µM. At MGL, the 2-AG accumulation, % of vehicle control at 1 µM was determined as 507%. The compound further gave an IC50 in assay [1] of 0.013 µM.

As for `O=C(c1ccc2c(ccn2-c2ccc(Cl)cn2)c1)N1CC(N2CCN(C(=O)c3nccs3)CC2)C1` [Cpd 1313, 1-(5-Chloropyridin-2-yl)-5-({3-[4-(1,3-thiazol-2-ylcarbonyl)piperazin-1-yl]azetidin-1-yl}carbonyl)-1H-indole], the Kd amounted to 0.003 µM on mutant MGL (setting [2]) and 0.001 µM on mutant MGL (setting [3]). For the same compound, the 2-AG accumulation, % of vehicle control at 1 µM on MGL was found to be 851%. Besides, the IC50 in assay [1] was < 0.005 µM.

In the case of `O=C(c1ccc2c(-c3ccccc3)cccc2c1)N1CC(N2CCN(C(=O)c3nccs3)CC2)C1` [Cpd 338, 1-{1-[(5-Phenylnaphthalen-2-yl)carbonyl]azetidin-3-3yl}-4-(1,3-thiazol-2-ylcarbonyl)piperazine], at mutant MGL (setting [4]), the Kd turned out to be 0.0011 µM. In addition, the 2-AG accumulation, % of vehicle control at 10 µM at MGL was determined as 791%. Besides, the IC50 in assay [1] is < 0.005 µM.

Consider `O=C(c1ccccc1)N1CCN(C2CN(C(=O)c3cc4c(C(F)(F)F)cccc4s3)C2)CC1` [Cpd 330, 1-(Phenylcarbonyl)-4-(1-{[4-(trifluoromethyl)-1-benzothiophen-2-yl]carbonyl}azetidin-3-yl)piperazine], for which, on mutant MGL (setting [4]), the Kd is 0.438 µM. Moreover, at MGL, the 2-AG accumulation, % of vehicle control at 1 µM amounted to 197%. For the same compound, half-maximal inhibition in assay [1] (IC50) was put at 0.308 µM.

Turning to `Cc1cc(C(=O)N2CC(N3CCN(C(=O)c4nccs4)CC3)C2)sc1-c1cccc(C(F)(F)F)c1` [Cpd 1354], at mutant MGL (setting [5]), the Kd worked out at 0.009 µM. Also, the 2-AG accumulation, % of vehicle control at 1 µM at MGL amounted to 750%. Moreover, the IC50 in assay [1] is < 0.005 µM.

For the compound `O=C(c1nccs1)N1CCN(C2CN(C(=O)c3sc4ccc(Cl)cc4c3C(F)(F)F)C2)CC1` [Cpd 896, 1-(1-{[5-Chloro-3-(trifluoromethyl)-1-benzothiophen-2-yl]carbonyl}azetidin-3-yl)-4-(1,3-thiazol-2-ylcarbonyl)piperazine], the Kd on mutant MGL (setting [2]) was found to be 0.008 µM. Further, on MGL, the 2-AG accumulation, % of vehicle control at 1 µM worked out at 648%. Moreover, the IC50 in assay [1] is < 0.005 µM.

For the compound `O=C(c1ccc(-c2ccc(F)cc2)cc1)N1CC(N2CCN(C(=O)c3cscn3)CC2)C1` [Cpd 225, 1-{1-[(4′-Fluorobiphenyl-4-yl)carbonyl]azetidin-3-yl}-4-(1,3-thiazol-4-ylcarbonyl)piperazine], the Kd at mutant MGL (setting [4]) is 0.02 µM. Moreover, the 2-AG accumulation, % of vehicle control at 10 µM on MGL turned out to be 656%. The same compound yielded an IC50 in assay [1] of 0.0547 µM.

Regarding `O=C(c1cc(F)cc(-c2ccccc2)c1)N1CC(N2CCN(C(=O)c3nccs3)CC2)C1` [Cpd 1104, 1-{1-[(5-Fluorobiphenyl-3-yl)carbonyl]azetidin-3-yl}-4-(1,3-thiazol-2-ylcarbonyl)piperazine], at mutant MGL (setting [2]), the Kd stood at 0.199 µM. Also, at MGL, the 2-AG accumulation, % of vehicle control at 1 µM turned out to be 334%. The compound also registered an IC50 in assay [1] of 0.013 µM.

Turning to `O=C(c1cc2cc(-c3cccc(C(F)(F)F)c3)ccc2o1)N1CC(N2CCN(C(=O)c3nccs3)CC2)C1` [Cpd 1343], the Kd at mutant MGL (setting [4]) was found to be 0.077 µM. Moreover, the 2-AG accumulation, % of vehicle control at 1 µM on MGL is 838%. The IC50 in assay [1] is < 0.005 µM.

In the case of `O=C(c1nccs1)N1CCN(C2CN(C(=O)c3cccc4oc(-c5ccccc5)nc34)C2)CC1` [Cpd 1190], the Kd on mutant MGL (setting [4]) is 0.008 µM. The 2-AG accumulation, % of vehicle control at 1 µM at MGL was 126%. For the same compound, in assay [1], the half-maximal inhibitory concentration (IC50) was 0.099 µM.

Consider `NC(=O)c1cccc(-n2ccc3cc(C(=O)N4CC(N5CCN(C(=O)c6nccs6)CC5)C4)ccc32)c1` [Cpd 1177], for which, on mutant MGL (setting [5]), the Kd came to 0.088 µM. Further, on MGL, the 2-AG accumulation, % of vehicle control at 1 µM came out at 895%. For the same compound, it took 0.063 µM to reach half-maximal inhibition in assay [1] (IC50).
